Assay results published in patent publication US7829309B1, “Cell culture performance with betaine” (Immunex Corporation, priority 2002, dated 2010).
Entries after “also recorded” stand apart in the source; their conditions may differ.

Key:
cell cultures = conditions: physiological osmolality, 292 mOsm/kg; cited from earlier work
[1] = tested on: TNFR-Fc producing cells (CHO cell lines); assay: Betaine in 1 L bioreactor cultures of TNFR-Fc producing CHO cells at production osmolality; type: cell-based, Chinese hamster
Procedure: TNFR-Fc production in some CHO cell lines results in greater quantities of recombinant protein product but with lower viability than other cell lines during the final days of the run. The decreased viability correlates with increased protease activity in the culture supernatant, a result of dying cells releasing proteases into the media, which decreases stability of the final purified product. The current study was performed to determine if betaine could prolong viability at production osmolality (250-280 mOsm initial value).
The bioreactors used for this study were stirred vessels with a 1 liter working volume, with temperature, pH and dO2 control. The medium was serum-free with bicarbonate, IGF-1 (LongR3; GroPep, Australia), intralipids and peptones added. Betaine was added to 1 L bioreactor cultures of TNFR-Fc producing cells at 0, 10, 20, 30, and 40 mM with the osmolality of each culture adjusted to 270 to 280 mOsm with an appropriate amount of NaCl. The reactors were induced to express recombinant protein on day 2 by reducing the temperature and adding butyrate to 0.5 mM. Daily samples were taken for analysis of metabolic and productivity parameters.
The ability of induced cells to produce TNFR:Fc was not decreased in the presence of betaine.

C[N+](C)(C)CC(=O)O [betaine]
effect on cell culture growth or maximum viable cell concentration (cell cultures): no effect
cell viability (viable cells as percentage of living cells over total cells, trypan blue exclusion; VCD profiles) ([1]; betaine 0, 10, 20, 30, 40 mM, serum-free medium, osmolality 270 to 280 mOsm, most noticeable after day 5 (FIG. 1)): increases cell viability; also recorded: positive effect on cell viability
concentration dependence of the viability effect ([1]; betaine 10-40 mM, higher concentrations than 30 mM did not increase viability as much): titration effect up to 30 mM
ability of induced cells to produce TNFR:Fc ([1]; in the presence of betaine, induced on day 2 by reduced temperature and 0.5 mM butyrate): not decreased
increase in percentage of secreted recombinant polypeptide having the desired conformation (native conformation and dimerized) ([1]; in the presence of betaine, measured by hydrophobic interaction chromatography (HIC) against known controls): 17.7%
